From US20250340563A1, “FUSED PYRIDAZINE DERIVATIVES AS NLRP3 INHIBITORS” (Takeda Pharmaceutical Company Limited, priority 2022, published 2025) come the findings set out here.

One assay has as its target NLRP3 inflammasome (Homo sapiens, UniProt Q96P20). The assay is described as follows: IL-1β assay in IFN-γ-differentiated, LPS-primed, ATP-activated THP-1 cells (ELISA). The assay is classed as cell-based. As to conditions: 50 ng/mL LPS priming, 2.5 mM ATP activation, 2 hours. In a few lines: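 Supernatant IL-1β is quantified by ELISA after 2 h of 2.5 mM ATP stimulation at 37 °C, with IC50 taken from a four-parameter fit of % inhibition. Before this, THP-1 macrophages (25 ng/mL IFN-γ, 24 h) were LPS-primed (50 ng/mL, 24 h, no FBS) and exposed to serially diluted compound for 30 min.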

The test system of another assay is NF-κB pathway. Description: TNF-α assay in IFN-γ-differentiated, LPS-stimulated THP-1 cells (ELISA). Format: cell-based. The settings on record: Homo sapiens, 50 ng/mL LPS, 3 hours. Here is the method: Monocytic THP-1 cells (ATCC: TIB-202) are maintained in accordance with the provider's instructions in RPMI media (Life Technologies, Cat #A10491-01); RPMI is supplemented with 10% heat inactivated fetal bovine serum (Hyclone Cat #SH30396.03). The cells are differentiated into macrophages by the addition of 25 ng/mL IFN-γ for 24 hours at 37° C./5% CO2. Media is exchanged with fresh media with no FBS. The cells are plated at 40,000 cells per well in 384-well flat-bottom cell culture plates (Costar 3764) containing compounds (added in 1:1000) in a 1:3.16 serial dilution series in DMSO and are incubated for 30 minutes at 37° C./5% CO2. The NF-κB pathway is activated with the addition of 50 ng/mL LPS and the cells are incubated for 3 hours at 37° C./5% CO2. At the end of the incubation period, supernatant (40 μL) is removed, and […] are monitored using an ELISA (Human TNF-α ELISA, R&D systems, Cat #DY210) according to the manufacturer's instructions.
The IC50 values are calculated from a plot of percentage of inhibition versus the inhibitor concentration by a logistics curve fit according to: Y=[Bottom+(Top−Bottom)]/(1+10^[(Log IC50−X)·Hill Slope], where Y is the % inhibition at the inhibitor concentration, X, “Bottom” is the lowest inhibition value, i.e. 0%, “Top” is the maximum inhibition value, i.e. 100%, and the “Hill Slope” describes the slope of the sigmoidal curve between the “Bottom” and “Top” values. The curve fitting was conducted with internally developed software.
Background: An ELISA detects its analyte on a solid surface through an enzyme-linked reagent.

Molecules are shown by their SMILES.

NLRP3 inflammasome, sequence (Q96P20 whole entry): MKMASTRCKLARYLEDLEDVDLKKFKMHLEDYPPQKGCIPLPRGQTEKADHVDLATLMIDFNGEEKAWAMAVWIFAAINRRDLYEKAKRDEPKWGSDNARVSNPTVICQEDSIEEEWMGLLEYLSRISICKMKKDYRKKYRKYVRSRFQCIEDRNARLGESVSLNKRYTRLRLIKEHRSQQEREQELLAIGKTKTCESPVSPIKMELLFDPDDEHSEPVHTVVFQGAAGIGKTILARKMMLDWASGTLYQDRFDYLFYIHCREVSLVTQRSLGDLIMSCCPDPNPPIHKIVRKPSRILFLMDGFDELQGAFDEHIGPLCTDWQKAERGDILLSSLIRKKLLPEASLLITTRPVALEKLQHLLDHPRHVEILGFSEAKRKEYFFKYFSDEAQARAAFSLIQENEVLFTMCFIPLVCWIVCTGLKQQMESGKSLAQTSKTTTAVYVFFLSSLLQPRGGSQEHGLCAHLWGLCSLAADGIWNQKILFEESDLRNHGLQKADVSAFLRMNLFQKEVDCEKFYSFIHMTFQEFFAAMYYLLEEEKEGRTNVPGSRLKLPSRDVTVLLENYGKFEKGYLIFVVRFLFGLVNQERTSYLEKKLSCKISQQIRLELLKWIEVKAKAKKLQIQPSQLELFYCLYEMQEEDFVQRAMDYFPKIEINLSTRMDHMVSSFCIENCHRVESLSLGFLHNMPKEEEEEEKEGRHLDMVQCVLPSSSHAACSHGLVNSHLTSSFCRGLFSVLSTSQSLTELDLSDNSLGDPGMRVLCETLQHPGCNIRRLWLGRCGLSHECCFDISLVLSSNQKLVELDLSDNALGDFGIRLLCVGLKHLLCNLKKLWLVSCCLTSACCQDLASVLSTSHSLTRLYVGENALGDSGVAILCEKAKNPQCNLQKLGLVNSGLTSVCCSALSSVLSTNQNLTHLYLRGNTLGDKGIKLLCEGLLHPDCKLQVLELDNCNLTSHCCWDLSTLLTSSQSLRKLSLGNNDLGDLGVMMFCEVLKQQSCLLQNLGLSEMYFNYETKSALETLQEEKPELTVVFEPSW

Take `CN1C[C@H](F)C[C@@H](Nc2nnc(-c3ccc(Cl)cc3F)c3ccccc23)C1` [Example 176, 4-(4-chloro-2-fluorophenyl)-N-((3R,5R)-5-fluoro-1-methylpiperidin-3-yl)phthalazin-1-amine]: the IC50 – broadly, the concentration that inhibits the measured activity by half – against NLRP3 inflammasome is 37 nM; in the assay on NF-κB pathway, above 30000 nM.

For the molecule `COc1ccc(-c2nnc(N[C@@H]3C[C@@H](F)CN(C)C3)c3c2CCOC3)c(C(F)(F)F)c1` [Example 216, N-((3R,5R)-5-fluoro-1-methylpiperidin-3-yl)-1-(4-methoxy-2-(trifluoromethyl)phenyl)-7,8-dihydro-5H-pyrano[3,4-d]pyridazin-4-amine], the IC50 against NLRP3 inflammasome was 373 nM; in the assay with NF-κB pathway, above 30000 nM.

In the case of `COc1ccc(-c2nnc(Nc3cccc(O)c3)c3ccncc23)cc1` [Example 41, 3-((4-(4-methoxyphenyl)pyrido[3,4-d]pyridazin-1-yl)amino)phenol], the IC50 at NLRP3 inflammasome is 394 nM; with NF-κB pathway, above 30000 nM.

Consider `COc1ccc(-c2nnc(N[C@@H]3CCCN(CCF)C3)c3cnccc23)c(F)c1` [Example 87, (R)-1-(2-fluoro-4-methoxyphenyl)-N-(1-(2-fluoroethyl)piperidin-3-yl)pyrido[3,4-d]pyridazin-4-amine], for which the IC50 at NLRP3 inflammasome was 33 nM; in the assay on NF-κB pathway it was above 30000 nM.

Turning to `CN1C[C@H](F)C[C@@H](Nc2nnc(-c3ccc(Cl)cc3F)c3ccncc23)C1` [Example 184, 1-(4-chloro-2-fluorophenyl)-N-((3R,5R)-5-fluoro-1-methylpiperidin-3-yl)pyrido[3,4-d]pyridazin-4-amine], the values for the IC50 against NLRP3 inflammasome and in the assay on NF-κB pathway were 152 nM and above 30000 nM, respectively.

Take `Cc1nccc2c(-c3ccc(Cl)cc3)nnc(NC3CCCN(C)C3)c12` (stereo not shown) [Example 76, 1-(4-chlorophenyl)-5-methyl-N-(1-methylpiperidin-3-yl)pyrido[3,4-d]pyridazin-4-amine]: the IC50 against NLRP3 inflammasome was 178 nM; with NF-κB pathway, above 30000 nM.

In the case of `CN1CCC[C@@H](Nc2nnc(-c3ccc(Cl)cc3O)c3ccncc23)C1` [Example 74, (R)-5-chloro-2-(4-((1-methylpiperidin-3-yl)amino)pyrido[3,4-d]pyridazin-1-yl)phenol], the IC50 is 4 nM against NLRP3 inflammasome and above 30000 nM in the assay on NF-κB pathway.

Turning to `C[C@]1(O)C[C@@H](Nc2nnc(-c3ccc(Cl)cc3)c3ccccc23)C1` [Example 118, cis-3-((4-(4-chlorophenyl)phthalazin-1-yl)amino)-1-methylcyclobutan-1-ol], the IC50 is 334 nM on NLRP3 inflammasome and above 30000 nM in the assay with NF-κB pathway.

`CCN1C[C@H](F)C[C@@H](Nc2nnc(-c3ccc(OC)cc3)c3ccncc23)C1` [Example 195, N-((3R,5R)-1-ethyl-5-fluoropiperidin-3-yl)-1-(4-methoxyphenyl)pyrido[3,4-d]pyridazin-4-amine]: the IC50 was 113 nM at NLRP3 inflammasome and above 30000 nM with NF-κB pathway.

As for `COc1ccc(-c2nnc(N[C@@H]3CCCN(CCF)C3)c3cnccc23)cc1` [Example 84, (R)—N-(1-(2-fluoroethyl)piperidin-3-yl)-1-(4-methoxyphenyl)pyrido[3,4-d]pyridazin-4-amine], the IC50 at NLRP3 inflammasome is 79 nM; with NF-κB pathway it was above 30000 nM.

Consider `COc1ccc(-c2nnc(Nc3cccc(O)c3)c3ccccc23)cc1` [Example 1, 3-((4-(4-methoxyphenyl)phthalazin-1-yl)amino)phenol], for which the concentration for half-maximal inhibition (IC50) on NLRP3 inflammasome amounted to 1880 nM; in the assay with NF-κB pathway, 7200 nM.

On to `COc1cc2c(-c3ccc(Cl)cc3)nnc(NC3CCCN(C)C3)c2cn1` (stereo not shown) [Example 83, 1-(4-chlorophenyl)-7-methoxy-N-(1-methylpiperidin-3-yl)pyrido[3,4-d]pyridazin-4-amine], for which the values for the IC50 on NLRP3 inflammasome and in the assay on NF-κB pathway were 82 nM and above 30000 nM, respectively.

As for `CN1C[C@H](F)C[C@@H](Nc2nnc(-c3ccc(Cl)cc3F)c3c2CCOC3)C1` [Example 211, 4-(4-chloro-2-fluorophenyl)-N-((3R,5R)-5-fluoro-1-methylpiperidin-3-yl)-7,8-dihydro-5H-pyrano[3,4-d]pyridazin-1-amine], the results for the IC50 against NLRP3 inflammasome and in the assay on NF-κB pathway were 1150 nM and above 30000 nM, respectively.

Turning to `COc1ccc(-c2nnc(N[C@@H]3CCCN(CCF)C3)c3ccccc23)cc1` [Example 58, (R)—N-(1-(2-fluoroethyl)piperidin-3-yl)-4-(4-methoxyphenyl)phthalazin-1-amine], the IC50 against NLRP3 inflammasome is 66 nM; in the assay with NF-κB pathway it was above 30000 nM.

Consider `CCN1C[C@H](F)C[C@@H](Nc2nnc(-c3ccc(OC)cc3)c3ccccc23)C1` [Example 193, N-((3R,5R)-1-ethyl-5-fluoropiperidin-3-yl)-4-(4-methoxyphenyl)phthalazin-1-amine], for which the IC50 was 22 nM at NLRP3 inflammasome and above 30000 nM in the assay with NF-κB pathway.

Turning to `COc1ccc(-c2nnc(N[C@@H]3C[C@@H](F)CN(CC4CC4)C3)c3ccccc23)cc1` [Example 194, N-((3R,5R)-1-(cyclopropylmethyl)-5-fluoropiperidin-3-yl)-4-(4-methoxyphenyl)phthalazin-1-amine], the IC50 on NLRP3 inflammasome was 35 nM; in the assay on NF-κB pathway, above 30000 nM.

Turning to `F[C@H]1CNC[C@H](Nc2nnc(-c3ccc(Cl)cc3)c3ccccc23)C1` [Example 190, 4-(4-chlorophenyl)-N-((3R,5R)-5-fluoropiperidin-3-yl)phthalazin-1-amine], the IC50 against NLRP3 inflammasome was 648 nM; in the assay with NF-κB pathway, 7590 nM.

Consider `Clc1ccc(-c2nnc(NC3CCCN(C4CC4)C3)c3ccncc23)cc1` (stereo not shown) [Example 89, 4-(4-chlorophenyl)-N-(1-cyclopropylpiperidin-3-yl)pyrido[3,4-d]pyridazin-1-amine], for which the IC50 at NLRP3 inflammasome is 91 nM; in the assay with NF-κB pathway, above 30000 nM.

As to `COc1ccc(-c2nnc(N[C@@H]3CCCN(C)C3)c3c(C)cccc23)cc1` [Example 56, (R)-4-(4-methoxyphenyl)-8-methyl-N-(1-methylpiperidin-3-yl)phthalazin-1-amine], the IC50 on NLRP3 inflammasome was 72 nM; with NF-κB pathway it was above 30000 nM.

On to `CN1CCC[C@@H](Nc2nnc(-c3ccc(Cl)cc3O)c3cnccc23)C1` [Example 75, (R)-5-chloro-2-(1-((1-methylpiperidin-3-yl)amino)pyrido[3,4-d]pyridazin-4-yl)phenol], for which the IC50 is 3 nM against NLRP3 inflammasome and above 30000 nM in the assay with NF-κB pathway.

Turning to `Oc1ccccc1-c1nnc(N[C@@H]2CCCN(CCF)C2)c2cnccc12` [Example 86, (R)-2-(4-((1-(2-fluoroethyl)piperidin-3-yl)amino)pyrido[3,4-d]pyridazin-1-yl)phenol], the figures for the IC50 at NLRP3 inflammasome and in the assay with NF-κB pathway were 21 nM and above 30000 nM, respectively.

Regarding `Cc1ccc(-c2nnc(N[C@@H]3CCCN(C)C3)c3cnccc23)cc1` [Example 30, (R)—N-(1-methylpiperidin-3-yl)-1-(p-tolyl)pyrido[3,4-d]pyridazin-4-amine], the IC50 at NLRP3 inflammasome was 97 nM; with NF-κB pathway it was above 30000 nM.

With `CN1CCC[C@@H](Nc2nnc(-c3ccccc3O)c3ccncc23)C1` [Example 28, (R)-2-(4-((1-methylpiperidin-3-yl)amino)pyrido[3,4-d]pyridazin-1-yl)phenol], the figures for the IC50 at NLRP3 inflammasome and in the assay on NF-κB pathway were 8 nM and above 30000 nM, respectively.

With `Clc1ccc(-c2nnc(Nc3ccccc3)c3ccccc23)cc1` [Example 153, 4-(4-chlorophenyl)-N-phenylphthalazin-1-amine], the IC50 against NLRP3 inflammasome is 2260 nM; in the assay with NF-κB pathway, above 30000 nM.

Take `CN1CCCC(Nc2nnc(-c3ccc(Cl)c(F)c3)c3ccccc23)C1` (stereo not shown) [Example 44, 4-(4-chloro-3-fluorophenyl)-N-(1-methylpiperidin-3-yl)phthalazin-1-amine]: the IC50 is 97 nM against NLRP3 inflammasome and above 30000 nM in the assay on NF-κB pathway.

`COc1ccc(-c2nnc(N[C@@H]3CCCN(C4(C)CC4)C3)c3cnccc23)cc1` [Example 168, (R)-1-(4-methoxyphenyl)-N-(1-(1-methylcyclopropyl)piperidin-3-yl)pyrido[3,4-d]pyridazin-4-amine]: the IC50 was 5 nM against NLRP3 inflammasome and above 30000 nM with NF-κB pathway.

`COc1cc2c(NC3CCCN(C)C3)nnc(-c3ccc(Cl)cc3)c2cn1` (stereo not shown) [Example 82, 4-(4-chlorophenyl)-7-methoxy-N-(1-methylpiperidin-3-yl)pyrido[3,4-d]pyridazin-1-amine]: the values for the IC50 on NLRP3 inflammasome and in the assay on NF-κB pathway were 95 nM and above 10000 nM, respectively.

Take `Oc1ccccc1-c1nnc(N[C@@H]2CCCN(CCF)C2)c2ccccc12` [Example 60, (R)-2-(4-((1-(2-fluoroethyl)piperidin-3-yl)amino)phthalazin-1-yl)phenol]: the IC50 against NLRP3 inflammasome came to 27 nM; in the assay on NF-κB pathway it was 21400 nM.

For the molecule `C[C@]1(O)C[C@@H](Nc2nnc(-c3ccc(Cl)cc3O)c3ccncc23)C1` [Example 95, cis-5-chloro-2-(4-((-3-hydroxy-3-methylcyclobutyl)amino)pyrido[3,4-d]pyridazin-1-yl)phenol], the IC50 on NLRP3 inflammasome is 10 nM; with NF-κB pathway, above 30000 nM.
